Legend:
T47D cells = assay: Cell proliferation inhibition assay (MTT, 7 days); assay type: cell-based; settings: Homo sapiens, 168 h, 7 days incubation
Method: (§1) MCF7, T47D, OVCAR3 and HCC1806 cells were inoculated in 96-well plates at 3000, 3000, 2500, and 2000 cells/well, respectively, and cultured overnight at 37° C., 5% C02 incubator.
(§2) 1. […] Then 2.5 μl of the stock solution was dissolved in 497.5 μl of DMSO-free medium, and then a 3-fold serial gradient dilution was performed with 0.1% DMSO medium for a total of 9 concentrations, and the concentrations of the compounds after dilution were as follows: • 10000 nM, 3333.33 nM, 1111.11 nM, 370.34 nM, 123.45 nM, 41.15 nM, 13.72 nM, 4.57 nM, and 1.52 nM. • b) After fully mixing, 20 μL of compound solutions were added into cell culture plates containing 80 μL of cells respectively, with 4 replicate wells for each concentration. • c) The cells were transferred to an incubator and incubated for 7 days, and exchanged with fresh culture medium containing the same concentration of compounds when incubated to day 4. 2. MTT assay • a) The cell culture plate was taken out and 10 μL of 5 mg/ml MTT was added to the hood. • b) The cell culture plate was put back into the incubator and continued to incubate for 3 hours. • c) The cell culture plate was taken out to remove the culture medium, and 100 μL of isopropanol (0.4 mMHCl, 0.4% NP40) was added to the plate, and the plate was shaken on a shaker at room temperature for 30 minutes and read at 570 nm. 3. Data analysis
(§3) The survival rate (% Cell Survival) was calculated using the following equation:
(§4) % Cell Survival=100%×(OD_Sample−OD_LCave)/(OD_HC−OD_LCave) • OD_HC: 0.1‰ cell readings of DMSO control • OD_Sample: cell readings of compound addition • OD_LC: readings of blank medium • Analyed by Prizm: Dose-response-Inhibition Log(inhibitor) vs response (three parameters for the best fit)
(§5) IC50 (nM) values were calculated by concentration-response curve fitting.

MCF7 cells = assay: Cell proliferation inhibition assay (MTT, 7 days); assay type: cell-based; settings: Homo sapiens, 168 h, 7 days incubation
Method: as §1, §2, §3, §4, §5

OVCAR3 cells = assay: Cell proliferation inhibition assay (MTT, 7 days); assay type: cell-based; settings: Homo sapiens, OVCAR-3, 168 h, 7 days incubation
Method: as §1, §2, §3, §4, §5

HCC1806 cells = assay: Cell proliferation inhibition assay (MTT, 7 days); assay type: cell-based; settings: Homo sapiens, HCC1806, 168 h, HCC1086 [sic], 7 days incubation
Method: as §1, §2, §3, §4, §5

CDK4/CycD3 = CDK4/CycD3 (Homo sapiens, UniProt P11802); assay: Enzyme activity test; assay type: biochemical;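 also: values come from the source column headed CDK4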
Chain of CDK4/CycD3 (P11802 whole entry, species assumed): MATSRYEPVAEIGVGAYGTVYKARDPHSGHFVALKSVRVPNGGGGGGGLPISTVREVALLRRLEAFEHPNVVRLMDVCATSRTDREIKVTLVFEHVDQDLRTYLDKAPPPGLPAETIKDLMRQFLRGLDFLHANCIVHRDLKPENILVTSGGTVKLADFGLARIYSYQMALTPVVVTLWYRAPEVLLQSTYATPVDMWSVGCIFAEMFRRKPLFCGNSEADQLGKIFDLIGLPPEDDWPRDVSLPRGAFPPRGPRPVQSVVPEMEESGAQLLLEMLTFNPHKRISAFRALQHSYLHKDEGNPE
Chain of CDK4/CycD3 (P30281 whole entry partner, species assumed): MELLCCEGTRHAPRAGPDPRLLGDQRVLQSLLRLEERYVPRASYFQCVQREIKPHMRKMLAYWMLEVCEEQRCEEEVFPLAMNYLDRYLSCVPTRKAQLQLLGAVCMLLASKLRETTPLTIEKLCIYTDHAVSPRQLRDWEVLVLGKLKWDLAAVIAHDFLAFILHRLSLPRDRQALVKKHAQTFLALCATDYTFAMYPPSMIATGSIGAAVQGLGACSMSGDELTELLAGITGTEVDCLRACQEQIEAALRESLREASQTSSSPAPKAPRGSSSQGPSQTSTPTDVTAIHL
Method: (§6) • 1. The test compounds and pabocinib were configured into a […] solution of DMSO; • 2. 20 nL of stock solution was transferred to a 384-well plate using Echo550. DMSO was used as a blank control.
(§7) • 1. according to the following table to prepare 1.3X enzyme solution containing enzyme, substrate and cofactor; • 2. 15 μL of 1.3X enzyme solution was added to each well and the mixture was incubated for 30 min at room temperature; • 3. 5 μL of ATP solution was added to initiate the reaction. The final volume of each well was 20 μL; • 4. After incubation for 150 min at room temperature, 75 μL of termination buffer solution was added to terminate the experiment; • 5. The samples were analyzed using EZ reader.
(§8) The % inhibition was calculated using the following equation
(§9) The one treated with DMSO is the positive control (PC)
(§10) The one without enzyme is the negative control (NC)
(§11) % Inhibition=100-100*((CRPC−CRsample)/(CRPC−CRNC))

CDK6/CycD1 = CDK6/CycD1 (Homo sapiens, UniProt Q00534); assay: Enzyme activity test; assay type: biochemical;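 also: values come from the source column headed CDK6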
Chain of CDK6/CycD1 (Q00534 whole entry, species assumed): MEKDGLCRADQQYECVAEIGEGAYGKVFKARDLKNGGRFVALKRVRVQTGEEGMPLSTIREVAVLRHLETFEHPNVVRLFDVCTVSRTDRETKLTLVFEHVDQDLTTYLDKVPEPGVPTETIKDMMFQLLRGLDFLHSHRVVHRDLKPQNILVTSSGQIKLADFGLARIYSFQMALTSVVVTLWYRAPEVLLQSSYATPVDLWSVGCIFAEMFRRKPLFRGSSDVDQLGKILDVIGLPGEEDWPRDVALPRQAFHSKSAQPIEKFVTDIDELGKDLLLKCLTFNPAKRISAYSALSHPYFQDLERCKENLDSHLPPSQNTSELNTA
Chain of CDK6/CycD1 (P24385 whole entry partner, species assumed): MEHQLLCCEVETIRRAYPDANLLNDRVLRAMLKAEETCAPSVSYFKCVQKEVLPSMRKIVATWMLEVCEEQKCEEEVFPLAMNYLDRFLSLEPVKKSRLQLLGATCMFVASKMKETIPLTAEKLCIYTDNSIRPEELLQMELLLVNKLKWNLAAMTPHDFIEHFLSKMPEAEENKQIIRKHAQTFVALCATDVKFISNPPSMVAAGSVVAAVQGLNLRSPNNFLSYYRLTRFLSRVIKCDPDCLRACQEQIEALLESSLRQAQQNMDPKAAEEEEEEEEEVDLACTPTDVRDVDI
Method: as §6, §7, §8, §9, §10, §11

CDK2/CycE1 = CDK2/CycE1 (Homo sapiens, UniProt P24941); assay: Enzyme activity test; assay type: biochemical;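 also: values come from the source column headed CDK2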
Method: as §6, §7, §8, §9, §10, §11

| IC50 (T47D cells) [nM] | IC50 (MCF7 cells) [nM] | IC50 (OVCAR3 cells) [nM] | IC50 (HCC1806 cells) [nM] | IC50 (CDK4/CycD3) [µM] | IC50 (CDK6/CycD1) [µM] | IC50 (CDK2/CycE1) [µM] | SMILES |
| --- | --- | --- | --- | --- | --- | --- | --- |
| 50 to 5200 | 50 to 5200 | 50 to 5200 | 200 to 51000 | 0.01 to 0.1 | 0.01 to 0.1 | < 0.01 | CC(C)(C)c1ccc(S(=O)(=O)N2CCC(Nc3ncc4cc(OC(F)F)c(=O)n([C@@H]5CCC[C@@]5(C)O)c4n3)CC2)cc1 [Example 23] |
| 50 to 5200 | ≤ 50 | ≤ 50 | 50 to 5200 |  |  |  | CN1CCN(c2ccc(Nc3ncc4cc(OC(F)F)c(=O)n([C@@H]5CCC[C@@]5(C)O)c4n3)cc2)CC1 [Example 63] |
| ≤ 50 | ≤ 50 | ≤ 50 | ≤ 50 |  |  |  | CN1CCN(c2ccc(Nc3ncc4cc(OC(F)F)c(=O)n([C@@H]5CCC[C@@]5(C)O)c4n3)nc2)CC1 [Example 60] |
| ≤ 50 | ≤ 50 | 50 to 5200 | 50 to 5200 |  |  |  | C[C@@]1(O)CCC[C@H]1n1c(=O)c(OC(F)F)cc2cnc(NC3CCN(S(=O)(=O)C4CCC(F)CC4)CC3)nc21 (some centres unmarked) [Example 55] |
|  |  |  |  | < 0.01 | < 0.01 | 0.01 to 0.1 | CN1CCC(c2ccc(Nc3ncc4cc(OC(F)F)c(=O)n([C@@H]5CCC[C@@]5(C)O)c4n3)cc2)CC1 [Example 61] |
| 50 to 5200 | 50 to 5200 | 50 to 5200 | 50 to 5200 |  |  |  | C[C@@]1(O)CCC[C@H]1n1c(=O)c(OC(F)F)cc2cnc(NC3CCN(S(=O)(=O)c4cccc(Cl)c4)CC3)nc21 [Example 59] |
| ≤ 50 | ≤ 50 | ≤ 50 | 50 to 5200 | < 0.01 |  | < 0.01 | C[C@@]1(O)CCC[C@H]1n1c(=O)c(OC(F)F)cc2cnc(NC3CCN(S(=O)(=O)C4CCC4)CC3)nc21 [Example 42] |
| 50 to 5200 | 50 to 5200 | 50 to 5200 | 200 to 51000 |  |  |  | C[C@@]1(O)CCC[C@H]1n1c(=O)c(OC(F)F)cc2cnc(NC3CCN(S(=O)(=O)c4ccc(Cl)cc4)CC3)nc21 [Example 58] |
| ≤ 50 | ≤ 50 | ≤ 50 | ≤ 50 | < 0.01 |  | < 0.01 | [2H]C([2H])([2H])Oc1ccc(S(=O)(=O)N2CCC(Nc3ncc4cc(OC(F)F)c(=O)n([C@@H]5CCC[C@@]5(C)O)c4n3)CC2)cc1 [Example 31] |
| 50 to 5200 |  | ≤ 50 | 200 to 51000 | 0.01 to 0.1 |  | < 0.01 | C[C@@]1(O)CCC[C@H]1n1c(=O)c(OC(F)F)cc2cnc(NC3CCN(S(=O)(=O)C4CCC(F)(F)CC4)CC3)nc21 [Example 54] |
| 50 to 5200 |  | ≤ 50 | 50 to 5200 | 0.01 to 0.1 | < 0.01 | < 0.01 | C[C@@]1(O)CCC[C@H]1n1c(=O)c(OC(F)F)cc2cnc(NC3CCN(S(=O)(=O)N4CCOCC4)CC3)nc21 [Example 66] |
| ≤ 50 | ≤ 50 | ≤ 50 | 50 to 5200 | < 0.01 |  | < 0.01 | CCS(=O)(=O)N1CCC(Nc2ncc3cc(OC(F)F)c(=O)n([C@@H]4CCC[C@@]4(C)O)c3n2)CC1 [Example 44] |
| 50 to 5200 |  | ≤ 50 | 50 to 5200 | < 0.01 |  | < 0.01 | C[C@@]1(O)CCC[C@H]1n1c(=O)c(OC(F)F)cc2cnc(NC3CCN(S(=O)(=O)CCC(F)(F)F)CC3)nc21 [Example 40] |
|  | ≤ 50 |  | 50 to 5200 |  |  |  | C[C@@]1(O)CCC[C@H]1n1c(=O)c(OC(F)F)cc2cnc(NC3CCN(S(=O)(=O)CC#N)CC3)nc21 [Example 38] |
| 50 to 5200 | 50 to 5200 | 200 to 51000 | 200 to 51000 |  |  |  | C[C@@]1(O)CCC[C@H]1n1c(=O)c(OC(F)F)cc2cnc(NC3CCN(S(=O)(=O)C4CCC(O)CC4)CC3)nc21 (some centres unmarked) [Example 56] |
| 50 to 5200 | 200 to 51000 | ≤ 50 | 200 to 51000 |  |  |  | C[C@@]1(O)CCC[C@H]1n1c(=O)c(OC(F)F)cc2cnc(NC3CCN(S(=O)(=O)C4CCC(=O)CC4)CC3)nc21 [Example 53] |

| IC50 (T47D cells) [nM] | IC50 (MCF7 cells) [nM] | IC50 (OVCAR3 cells) [nM] | IC50 (HCC1806 cells) [nM] | IC50 (CDK4/CycD3) [µM] | IC50 (CDK6/CycD1) [µM] | IC50 (CDK2/CycE1) [µM] | SMILES |
| --- | --- | --- | --- | --- | --- | --- | --- |
|  |  |  |  | 0.01 to 0.1 | 0.01 to 0.1 | < 0.01 | C[C@@]1(O)CCC[C@H]1n1c(=O)c(C2COC2)cc2cnc(NC3CCN(S(C)(=O)=O)CC3)nc21 [Example 1] |
| 50 to 5200 | 200 to 51000 | 50 to 5200 | 200 to 51000 |  |  |  | C[C@@]1(O)CCC[C@H]1n1c(=O)c(OC(F)F)cc2cnc(NC3CCN(S(=O)(=O)c4cccc(C(F)(F)F)c4)CC3)nc21 [Example 20] |
| ≤ 50 |  | ≤ 50 | ≤ 50 | < 0.01 |  | < 0.01 | COc1ncccc1S(=O)(=O)N1CCC(Nc2ncc3cc(OC(F)F)c(=O)n([C@@H]4CCC[C@@]4(C)O)c3n2)CC1 [Example 37] |
| ≤ 50 | ≤ 50 | ≤ 50 | ≤ 50 | < 0.01 |  | < 0.01 | COc1ccc(S(=O)(=O)N2CCC(Nc3ncc4cc(OC(F)F)c(=O)n([C@@H]5CCC[C@@]5(C)O)c4n3)CC2)cn1 [Example 36] |
| 50 to 5200 | 50 to 5200 | 50 to 5200 | 50 to 5200 |  |  |  | CCCS(=O)(=O)N1CCC(Nc2ncc3cc(OC(F)F)c(=O)n([C@@H]4CCC[C@@]4(C)O)c3n2)CC1 [Example 30] |
| 50 to 5200 | 50 to 5200 | ≤ 50 | 50 to 5200 | < 0.01 |  | < 0.01 | C[C@@]1(O)CCC[C@H]1n1c(=O)c(OC(F)F)cc2cnc(NC3CCN(S(=O)(=O)C4CCCC4)CC3)nc21 [Example 48] |
| ≤ 50 | ≤ 50 | ≤ 50 | ≤ 50 |  |  |  | CCOc1ccc(S(=O)(=O)N2CCC(Nc3ncc4cc(OC(F)F)c(=O)n([C@@H]5CCC[C@@]5(C)O)c4n3)CC2)cc1 [Example 34] |
| 200 to 51000 |  | 200 to 51000 | 200 to 51000 |  |  |  | C[C@@]1(O)CCC[C@H]1n1c(=O)c(OC(F)F)cc2cnc(NC3CCN(C(=O)C(F)(F)F)CC3)nc21 [Example 57] |
|  | ≤ 50 |  | ≤ 50 |  |  |  | CCn1cc(S(=O)(=O)N2CCC(Nc3ncc4cc(OC(F)F)c(=O)n([C@@H]5CCC[C@@]5(C)O)c4n3)CC2)cn1 [Example 39] |
| 50 to 5200 | 50 to 5200 | 50 to 5200 | 200 to 51000 |  |  | < 0.01 | C[C@@]1(O)CCC[C@H]1n1c(=O)c(OC(F)F)cc2cnc(NC3CCN(S(=O)(=O)CCC#N)CC3)nc21 [Example 33] |
| 50 to 5200 |  | 50 to 5200 | 200 to 51000 |  |  |  | C[C@@]1(O)CCC[C@H]1n1c(=O)c(OC(F)F)cc2cnc(NC3CCN(S(=O)(=O)C4CCCCC4)CC3)nc21 [Example 49] |
|  |  |  |  | 0.01 to 0.1 |  | 0.01 to 0.1 | C[C@@]1(O)CCC[C@H]1n1c(=O)c(OC(F)F)cc2cnc(N[C@@H]3CCOC[C@H]3O)nc21 [Example 45] |
| ≤ 50 | ≤ 50 | ≤ 50 | 50 to 5200 | < 0.01 |  | < 0.01 | C[C@@]1(O)CCC[C@H]1n1c(=O)c(OC(F)F)cc2cnc(NC3CCN(S(=O)(=O)C4CC(F)(F)C4)CC3)nc21 [Example 46] |
| 50 to 5200 | 200 to 51000 | 50 to 5200 | 200 to 51000 |  |  |  | C[C@@]1(O)CCC[C@H]1n1c(=O)c(OC(F)F)cc2cnc(NC3CCN(S(=O)(=O)c4cc(F)c(F)cc4F)CC3)nc21 [Example 21] |
|  |  |  |  | 0.01 to 0.1 | 0.01 to 0.1 | < 0.01 | CN([C@H]1CC[C@H](Nc2ncc3cc(OC(F)F)c(=O)n([C@@H]4CCC[C@@]4(C)O)c3n2)CC1)S(C)(=O)=O [Example 69] |

Source: patent US20240287065A1, “COMPOUND AS CDK KINASE INHIBITOR AND USE THEREOF” (TYK MEDICINES (ZHENGZHOU) , INC., priority 2021, published 2024)
